# Literature values in patent publication US20070021304A1, “Non-salt glyphosate herbicide composition and method for preparing the same” (Sinon Corporation, priority 2005, published 2007).
# Settings: pH 1.9, 20° C.
smiles,measurement,value
O=C(O)CNCP(=O)(O)O [Glyphosate],water solubility,approximately 10.5 g/L
